In the supplement of paper PMC10307832:

Assays:
Assay in all cases: relative viability (nuclei count vs DMSO), 5 days (fraction); higher = more cells survive
[1] = compound: COc1cc2nccc(Oc3ccc(NC(=O)C4(C(=O)Nc5ccc(F)cc5)CC4)cc3)c2cc1OC [Cabozantinib] + CS(=O)(=O)N1CCN(Cc2cc3nc(-c4cccc5[nH]ncc45)nc(N4CCOCC4)c3s2)CC1 [Pictilisib] (partner 1 µM)
Summary of the method: (§1)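 A single step with final 0.05% Triton X-100, 1% formaldehyde and 1 ug/ml Hoechst fixed the cells and stained nuclei 5 days after treatment. Lung cancer cell lines in 1536-well plates had been treated by pin tool the day after seeding with one drug alone or a fixed anchor-drug dose plus five library-drug doses (not always all listed) in √10 steps, and nuclei were counted on 4× images. Relative viability is the ratio of nuclei in treated wells to nuclei in vehicle wells, taken as the median of duplicate plates.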

[2] = compound: C1=CC(=CC=C1NC(=S)NNC2=C(C=C(C=C2[N+](=O)[O-])C(F)(F)F)[N+](=O)[O-])F [Kobe2602] + C[C@@H](Oc1cc(-c2cnn(C3CCNCC3)c2)cnc1N)c1c(Cl)ccc(F)c1Cl [Crizotinib] (partner 1 µM)
Summary of the method: as §1

[3] = compound: COc1cc2nccc(Oc3ccc(NC(=O)C4(C(=O)Nc5ccc(F)cc5)CC4)cc3)c2cc1OC [Cabozantinib] + O=C(c1cc(Cc2n[nH]c(=O)c3ccccc23)ccc1F)N1CCN(C(=O)C2CC2)CC1 [Olaparib] (partner 8 µM)
Summary of the method: as §1

[4] = compound: C1=CC(=CC=C1NC(=S)NNC2=C(C=C(C=C2[N+](=O)[O-])C(F)(F)F)[N+](=O)[O-])F [Kobe2602] + CC(=O)Nc1cccc(-n2c(=O)n(C3CC3)c(=O)c3c(Nc4ccc(I)cc4F)n(C)c(=O)c(C)c32)c1 [Trametinib] (partner 0.02 µM)
Summary of the method: as §1

Cell Line	relative viability ([1]; first compound 0.02 µM)	relative viability ([1]; first compound 0.06325 µM)	relative viability ([1]; first compound 0.2 µM)	relative viability ([1]; first compound 0.6325 µM)	relative viability ([1]; first compound 2 µM)	relative viability ([2]; first compound 0.2 µM)	relative viability ([2]; first compound 0.6325 µM)	relative viability ([2]; first compound 2 µM)	relative viability ([2]; first compound 6.325 µM)	relative viability ([2]; first compound 20 µM)	relative viability ([3]; first compound 0.02 µM)	relative viability ([3]; first compound 0.06325 µM)	relative viability ([3]; first compound 0.2 µM)	relative viability ([3]; first compound 0.6325 µM)	relative viability ([3]; first compound 2 µM)	relative viability ([4]; first compound 0.2 µM)	relative viability ([4]; first compound 0.6325 µM)	relative viability ([4]; first compound 2 µM)	relative viability ([4]; first compound 6.325 µM)	relative viability ([4]; first compound 20 µM)
A549	0.572	0.57	0.502	0.514	0.379	0.759	0.723	0.781	0.764	0.8	0.291	0.628	0.34	0.212	0.309	–	–	–	–	–
NCI-H23	–	0.476	0.402	0.358	0.427	0.5	0.604	0.392	0.499	0.619	–	0.386	0.345	0.304	0.348	0.428	0.49	0.359	0.385	0.444
NCI-H1993	0.842	0.804	0.987	0.811	0.878	0.82	0.89	0.72	0.753	0.782	1.03	0.975	0.75	0.785	0.981	0.516	0.489	0.429	0.507	0.476
Calu-6	0.984	1.05	0.878	0.814	0.78	0.84	0.78	0.786	0.744	0.813	0.595	0.662	0.613	0.539	0.517	–	–	–	–	–
NCI-H1648	–	–	–	–	–	–	–	–	–	–	1.17	0.995	–	1.02	0.651	0.474	0.488	0.465	0.457	0.408
NCI-H460	0.232	0.44	0.379	0.23	0.439	0.855	0.905	0.922	0.893	0.729	0.443	0.492	0.445	0.46	0.422	–	0.198	0.183	0.166	0.111
NCI-H3122	0.512	0.622	0.579	0.77	0.769	0.262	0.255	0.254	0.263	0.266	0.636	0.655	0.617	0.527	0.633	0.257	0.242	0.211	0.214	0.238
HCC-44	0.487	0.581	0.6	0.571	0.662	0.771	0.697	0.767	0.783	0.749	0.988	1.02	0.964	0.997	1	1.04	1.16	1.02	0.939	0.967
